Values quoted from earlier work as cited in US7994325B2, “CGRP receptor antagonists” (Merck Sharp & Dohme Corp., priority 2005, dated 2011).
Ends that are not written are not given here.

Assays:
CGRP receptors [1] = conditions: marmoset (Doods et al. 2000)
CGRP receptors [2] = conditions: intravenously administered (Olesen et al. 2004)
CGRP receptors [3] = conditions: rats, prior administration (Williamson et al. 1997)
CGRP receptors [4] = conditions: rat (Escott et al. 1995)

## NCCCC[C@H](NC(=O)[C@@H](Cc1cc(Br)c(O)c(Br)c1)NC(=O)N1CCC(N2Cc3ccccc3NC2=O)CC1)C(=O)N1CCN(c2ccncc2)CC1 [BIBN4096BS]
CGRP receptors [1]
  effect on increase in facial blood flow: blocked
CGRP receptors [2]
  clinical efficacy and safety in migraine: safe and effective acute treatment for migraine

## CGRP(8-37): "a fragment of CGRP that lacks seven N-terminal amino acid residues, is a selective antagonist of CGRP1"; "a peptide CGRP antagonist" (VTHRLAGLLSRSGGVVKNNFVPTNVGSKAF; ends and bridges not checked; UniProt P06881 90-119, looked up, fragment)
CGRP receptors [3]
  effect on increase in diameter of the middle meningeal artery: blocked
CGRP receptors [4]
  effect on increased facial blood flow: inhibited
